Results taken from patent EP2168965A1, “Substituted imidazopyridine, imidazopyrazine, imidazopyridazine and imidazopyrimidine derivatives as melanocortin-4 receptor antagonists” (Santhera Pharmaceuticals (Schweiz) AG, priority 2008, dated 2010).

target: T1, hMC-4R (Homo sapiens, UniProt P32245); experiment: Membrane binding assay: competition with fluorescence labeled NDP-alpha-MSH, fluorescence polarization; settings: not given
T1 construct: expressed in transfected cells; host or cells: HEK293 cells (membrane preparations)
Method: A membrane binding assay is used to identify competitive inhibitors of fluorescence labeled NDP-alpha-MSH binding to HEK293 cell membrane preparations expressing human melanocortin receptors.
The test compound or unlabeled NDP-alpha-MSH is dispensed at varying concentrations to a 384 well microtiter plate. Fluorescence labeled NDP-alpha-MSH is dispensed at a single concentration, followed by addition of membrane preparations. The plate is incubated for 5 h at room temperature.
The degree of fluorescence polarization is determined with a fluorescence polarization microplate reader.

T1 sequence (P32245 whole entry): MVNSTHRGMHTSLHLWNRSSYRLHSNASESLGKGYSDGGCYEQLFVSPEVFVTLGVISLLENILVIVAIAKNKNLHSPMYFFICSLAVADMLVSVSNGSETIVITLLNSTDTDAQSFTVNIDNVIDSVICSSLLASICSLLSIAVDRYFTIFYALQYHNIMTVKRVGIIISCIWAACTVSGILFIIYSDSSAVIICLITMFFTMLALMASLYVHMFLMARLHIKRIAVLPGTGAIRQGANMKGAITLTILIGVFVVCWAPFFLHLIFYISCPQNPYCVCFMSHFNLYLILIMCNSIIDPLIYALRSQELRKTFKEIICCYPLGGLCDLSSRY

SMILES	IC50 [nM]
CCOC(=O)c1nc2ccc(C(=O)N(CCC(C)C)CCC(C)C)cn2c1C#CCN1CCCC1 [Example 1]	100 to 1000
CC(C)CCN(CCC(C)C)C(=O)c1ccc2nc(C#N)c(C#CCN3CCCC3)n2c1 [Example 6]	> 1000

same assay, conditions: HEK293 cell membrane preparations expressing human melanocortin receptors; 5 h at room temperature; read-out: hMC-4R binding assay IC50

SMILES	IC50 [nM]
CC(C)CCN(CCC(C)C)C(=O)c1ccc2ncc(C#CCN3CCCC3)n2c1 [Example 2]	100 to 1000
CC(C)CCN(CCC(C)C)C(=O)c1ccc2nc(-c3ccccc3)c(C#CCN3CCCC3)n2c1 [Example 3]	> 1000
CC(C)CCN(CCC(C)C)C(=O)c1ccc2nc(C#Cc3ccccc3)c(C#CCN3CCCC3)n2c1 [Example 4]	100 to 1000
CC(C)CCN(CCC(C)C)C(=O)c1ccc2nc(-c3cnco3)c(C#CCN3CCCC3)n2c1 [Example 5]	< 100
CC(C)CCN(CCC(C)C)C(=O)c1ccc2nc(-c3ccoc3)c(C#CCN3CCCC3)n2c1 [Example 7]	100 to 1000
CC(C)CCN(CCC(C)C)C(=O)c1ccc2nc(-c3ccco3)c(C#CCN3CCCC3)n2c1 [Example 8]	100 to 1000
CC(C)CCN(CCC(C)C)C(=O)c1ccc2nc(Nc3ncccn3)c(C#CCN3CCCC3)n2c1 [Example 9]	100 to 1000
CC(C)CCN(CCC(C)C)C(=O)c1ccc2nc(N3CCOCC3)c(C#CCN3CCCC3)n2c1 [Example 10]	100 to 1000
CC(C)CCN(CCC(C)C)C(=O)c1ccc2nc(Nc3ccccn3)c(C#CCN3CCCC3)n2c1 [Example 11]	< 100
COc1cccc(Nc2nc3ccc(C(=O)N(CCC(C)C)CCC(C)C)cn3c2C#CCN2CCCC2)c1 [Example 12]	< 100
CC(C)CCN(CCC(C)C)C(=O)c1ccc2nc(N(C)c3ccccn3)c(C#CCN3CCCC3)n2c1 [Example 13]	100 to 1000
COc1cccc(N(C)c2nc3ccc(C(=O)N(CCC(C)C)CCC(C)C)cn3c2C#CCN2CCCC2)c1 [Example 14]	100 to 1000
CC(C)CCN(CCC(C)C)C(=O)c1ccc2nc(-c3cnn(CC4OCCO4)c3)c(C#CCN3CCCC3)n2c1 [Example 15]	< 100
CC(C)CCN(CCC(C)C)C(=O)c1ccc2nc(C3=CCN(C(=O)OC(C)(C)C)CC3)c(C#CCN3CCCC3)n2c1 [Example 16]	> 1000
CC(C)CCN(CCC(C)C)C(=O)c1ccc2nc(-c3cn[nH]c3)c(C#CCN3CCCC3)n2c1 [Example 17]	< 100
COc1cc(Nc2nc3ccc(C(=O)N(CCC(C)C)CCC(C)C)cn3c2C#CCN2CCCC2)ccc1F [Example 18]	< 100
COc1cc(Nc2nc3ccc(C(=O)N(CCC(C)C)CCC(C)C)cn3c2C#CCN2CCCC2)ccn1 [Example 19]	< 100

SMILES	IC50 [nM]
COc1ccc(Nc2nc3ccc(C(=O)N(CCC(C)C)CCC(C)C)cn3c2C#CCN2CCCC2)cn1 [Example 20]	< 100
CC(C)CCN(CCC(C)C)C(=O)c1ccc2nc(-c3ccc4nccn4c3)c(C#CCN3CCCC3)n2c1 [Example 21]	< 100
CC(C)CCN(CCC(C)C)C(=O)c1ccc2nc(-c3ccc(F)c(F)c3)c(C#CCN3CCCC3)n2c1 [Example 22]	100 to 1000
COc1ncc(-c2nc3ccc(C(=O)N(CCC(C)C)CCC(C)C)cn3c2C#CCN2CCCC2)cc1F [Example 23]	100 to 1000
COc1cc(-c2nc3ccc(C(=O)N(CCC(C)C)CCC(C)C)cn3c2C#CCN2CCCC2)ccc1F [Example 24]	100 to 1000
COc1cc(F)cc(-c2nc3ccc(C(=O)N(CCC(C)C)CCC(C)C)cn3c2C#CCN2CCCC2)c1 [Example 25]	> 1000
CC(C)CCN(CCC(C)C)C(=O)c1ccc2nc(-c3ccc(C#N)c(F)c3)c(C#CCN3CCCC3)n2c1 [Example 26]	100 to 1000
CC(C)CCN(CCC(C)C)C(=O)c1ccc2nc(-c3cc(F)cc(F)c3)c(C#CCN3CCCC3)n2c1 [Example 27]	> 1000
COc1ccc(Nc2nc3ccc(C(=O)N(CCC(C)C)CCC(C)C)cn3c2C#CCN2CCCC2)cc1F [Example 28]	< 100
CC(C)CCN(CCC(C)C)C(=O)c1ccc2nc(-c3cnc4c(c3)OCCN4C)c(C#CCN3CCCC3)n2c1 [Example 29]	< 100
Cc1n[nH]cc1-c1nc2ccc(C(=O)N(CCC(C)C)CCC(C)C)cn2c1C#CCN1CCCC1 [Example 30]	100 to 1000
Cc1cc(-c2nc3ccc(C(=O)N(CCC(C)C)CCC(C)C)cn3c2C#CCN2CCCC2)n(C)n1 [Example 31]	100 to 1000
COc1cccc(-c2nc3ccc(C(=O)N(CCC(C)C)CCC(C)C)cn3c2C#CCN2CCCC2)n1 [Example 32]	100 to 1000
CC(C)CCN(CCC(C)C)C(=O)c1ccc2nc(-c3ccc(=O)n(C)c3)c(C#CCN3CCCC3)n2c1 [Example 33]	< 100
COc1ncc(-c2nc3ccc(C(=O)N(CCC(C)C)CCC(C)C)cn3c2C#CCN2CCCC2)cn1 [Example 34]	< 100
CC(C)CCN(CCC(C)C)C(=O)c1ccc2nc(-c3ccc4nccnc4c3)c(C#CCN3CCCC3)n2c1 [Example 35]	< 100
CC(C)CCN(CCC(C)C)C(=O)c1ccc2nc(-c3c[nH]nc3C(F)(F)F)c(C#CCN3CCCC3)n2c1 [Example 36]	100 to 1000

target: T1, hMC-4R; experiment: Functional assay: membrane based cAMP fluorescence polarization assay for agonistic activity; assay type: biochemical; settings: read-out: % activation functional assay

SMILES	Emax [%]
CCOC(=O)c1nc2ccc(C(=O)N(CCC(C)C)CCC(C)C)cn2c1C#CCN1CCCC1 [Example 1]	0
CC(C)CCN(CCC(C)C)C(=O)c1ccc2ncc(C#CCN3CCCC3)n2c1 [Example 2]	0
CC(C)CCN(CCC(C)C)C(=O)c1ccc2nc(-c3ccccc3)c(C#CCN3CCCC3)n2c1 [Example 3]	0
CC(C)CCN(CCC(C)C)C(=O)c1ccc2nc(C#Cc3ccccc3)c(C#CCN3CCCC3)n2c1 [Example 4]	5
CC(C)CCN(CCC(C)C)C(=O)c1ccc2nc(-c3cnco3)c(C#CCN3CCCC3)n2c1 [Example 5]	0
CC(C)CCN(CCC(C)C)C(=O)c1ccc2nc(C#N)c(C#CCN3CCCC3)n2c1 [Example 6]	6
CC(C)CCN(CCC(C)C)C(=O)c1ccc2nc(-c3ccoc3)c(C#CCN3CCCC3)n2c1 [Example 7]	3
CC(C)CCN(CCC(C)C)C(=O)c1ccc2nc(-c3ccco3)c(C#CCN3CCCC3)n2c1 [Example 8]	5
CC(C)CCN(CCC(C)C)C(=O)c1ccc2nc(Nc3ncccn3)c(C#CCN3CCCC3)n2c1 [Example 9]	-12
CC(C)CCN(CCC(C)C)C(=O)c1ccc2nc(N3CCOCC3)c(C#CCN3CCCC3)n2c1 [Example 10]	0
CC(C)CCN(CCC(C)C)C(=O)c1ccc2nc(Nc3ccccn3)c(C#CCN3CCCC3)n2c1 [Example 11]	-7
COc1cccc(Nc2nc3ccc(C(=O)N(CCC(C)C)CCC(C)C)cn3c2C#CCN2CCCC2)c1 [Example 12]	-3
CC(C)CCN(CCC(C)C)C(=O)c1ccc2nc(N(C)c3ccccn3)c(C#CCN3CCCC3)n2c1 [Example 13]	-4
COc1cccc(N(C)c2nc3ccc(C(=O)N(CCC(C)C)CCC(C)C)cn3c2C#CCN2CCCC2)c1 [Example 14]	0
CC(C)CCN(CCC(C)C)C(=O)c1ccc2nc(-c3cnn(CC4OCCO4)c3)c(C#CCN3CCCC3)n2c1 [Example 15]	-4
CC(C)CCN(CCC(C)C)C(=O)c1ccc2nc(C3=CCN(C(=O)OC(C)(C)C)CC3)c(C#CCN3CCCC3)n2c1 [Example 16]	-11

SMILES	Emax [%]
CC(C)CCN(CCC(C)C)C(=O)c1ccc2nc(-c3cn[nH]c3)c(C#CCN3CCCC3)n2c1 [Example 17]	-6
COc1cc(Nc2nc3ccc(C(=O)N(CCC(C)C)CCC(C)C)cn3c2C#CCN2CCCC2)ccc1F [Example 18]	-5
COc1cc(Nc2nc3ccc(C(=O)N(CCC(C)C)CCC(C)C)cn3c2C#CCN2CCCC2)ccn1 [Example 19]	-13
COc1ccc(Nc2nc3ccc(C(=O)N(CCC(C)C)CCC(C)C)cn3c2C#CCN2CCCC2)cn1 [Example 20]	-16
CC(C)CCN(CCC(C)C)C(=O)c1ccc2nc(-c3ccc4nccn4c3)c(C#CCN3CCCC3)n2c1 [Example 21]	-12
CC(C)CCN(CCC(C)C)C(=O)c1ccc2nc(-c3ccc(F)c(F)c3)c(C#CCN3CCCC3)n2c1 [Example 22]	0
COc1ncc(-c2nc3ccc(C(=O)N(CCC(C)C)CCC(C)C)cn3c2C#CCN2CCCC2)cc1F [Example 23]	-9
COc1cc(-c2nc3ccc(C(=O)N(CCC(C)C)CCC(C)C)cn3c2C#CCN2CCCC2)ccc1F [Example 24]	-2
COc1cc(F)cc(-c2nc3ccc(C(=O)N(CCC(C)C)CCC(C)C)cn3c2C#CCN2CCCC2)c1 [Example 25]	-2
CC(C)CCN(CCC(C)C)C(=O)c1ccc2nc(-c3ccc(C#N)c(F)c3)c(C#CCN3CCCC3)n2c1 [Example 26]	-4
CC(C)CCN(CCC(C)C)C(=O)c1ccc2nc(-c3cc(F)cc(F)c3)c(C#CCN3CCCC3)n2c1 [Example 27]	-3
COc1ccc(Nc2nc3ccc(C(=O)N(CCC(C)C)CCC(C)C)cn3c2C#CCN2CCCC2)cc1F [Example 28]	-12
CC(C)CCN(CCC(C)C)C(=O)c1ccc2nc(-c3cnc4c(c3)OCCN4C)c(C#CCN3CCCC3)n2c1 [Example 29]	-5
Cc1n[nH]cc1-c1nc2ccc(C(=O)N(CCC(C)C)CCC(C)C)cn2c1C#CCN1CCCC1 [Example 30]	4
Cc1cc(-c2nc3ccc(C(=O)N(CCC(C)C)CCC(C)C)cn3c2C#CCN2CCCC2)n(C)n1 [Example 31]	3
COc1cccc(-c2nc3ccc(C(=O)N(CCC(C)C)CCC(C)C)cn3c2C#CCN2CCCC2)n1 [Example 32]	-4
